# Data reported in patent US9694078B2, “Tigecycline compositions and methods of preparation” (priority 2005, dated 2017).
# Experiments:
# [1] = Epimerization of minocycline versus tigecycline lyophilized at pH about 5.0, HPLC; format: physicochemical; conditions: lyophilized at pH about 5.0, stored 4 days at 40° C. and 75% relative humidity
# Protocol: In another experiment, minocycline was lyophilized at a pH of about 5.0 and the lyophilized cake was stored for 20 days at 40° C. and 75% relative humidity. At the end of the 20 days, the cake was analyzed by HPLC. The epimer of minocycline was measured to be present at a level of 2.65% by mass. By comparison, when tigecycline was lyophilized at a pH of about 5.0 and the sample stored under the same conditions, but for only 4 days followed by HPLC analysis, the tigecycline epimer was measured to be at a level of 5.40%, over twice as much even though tigecycline was only stressed for ⅕^th as long as minocycline. Thus, tigecycline epimerizes much more readily than minocycline, and epimerization is a much more significant problem with tigecycline than it is for minocycline.
# [2] = pH of tigecycline dissolved in water prior to lyophilization; format: physicochemical
# Protocol: Tigecycline has such a short admixture time and the reconstitution time is essentially zero because in solution, tigecycline oxidation is relatively rapid. Under current manufacturing, storage, and administration conditions, the most prevalent form of degradation is via oxidation. The reason oxidation is the most prevalent form of degradation in previous formulations relates to the chemical structure of tigecycline. […] When tigecycline is dissolved in water prior to lyophilization, the pH is slightly basic (about 7.8). This is higher than the pKa of the phenolic group on tigecycline. Thus, in both water and saline solutions, the phenolic group becomes deprotonated and more susceptible to reaction with oxygen which is why tigecycline compounding and lyophilization occur under a nitrogen blanket. Accordingly, care to avoid unnecessary exposure to oxygen must be taken by hospital staff during reconstitution and dilution.
# [3] = oral; cited from earlier work
# [4] = system: methicillin-resistant Staphylococcus aureus; conditions: cited from earlier work
# [5] = system: penicillin-resistant Streptococcus pneumoniae; conditions: cited from earlier work
# [6] = system: vancomycin-resistant enterococci; conditions: cited from earlier work
# [7] = existing composition, 1 mg/mL after dilution; cited from earlier work
# bacteria = conditions: compared with tigecycline; cited from earlier work
level of the tigecycline epimer [1] [%],pH of solution in water [2],Structure (SMILES),bioavailability when given orally [3],activity against methicillin-resistant Staphylococcus aureus [4],activity against penicillin-resistant Streptococcus pneumoniae [5],activity against vancomycin-resistant enterococci [6],time within which the diluted solution should be used [7] [h],anti-bacterial efficacy (bacteria)
5.40,about 7.8,CN(C)c1cc(NC(=O)CNC(C)(C)C)c(O)c2c1C[C@H]1C[C@H]3[C@H](N(C)C)C(O)=C(C(N)=O)C(=O)[C@@]3(O)C(O)=C1C2=O [Tigecycline],generally poor,active,active,active,≤ 6,
,,CN(C)c1cc(NC(=O)CNC(C)(C)C)c(O)c2c1C[C@H]1C[C@H]3[C@@H](N(C)C)C(O)=C(C(N)=O)C(=O)[C@@]3(O)C(O)=C1C2=O [tigecycline epimer],,,,,,lacks the anti-bacterial efficacy of tigecycline
